Test results: US20250127913A1, “BIFUNCTIONAL FOLATE RECEPTOR BINDING COMPOUNDS” (LYCIA THERAPEUTICS, INC., priority 2021, published 2025)

Columns and labels:
FOLR2 = FOLR2 (Homo sapiens (Human), UniProt P14207); test: SPR binding kinetics of compounds to folate receptor (FOLR2 immobilized on CM5 chip)
Description: A Biacore 8K+ was used to measure the association and dissociation rates of example compounds to FOLR2 (Acro Biosystems, Cat: F02-H5223-100 μg). Briefly, FOLR2 was reconstituted according to the manufacture's instructions to 200 μg/mL. Both the active and reference surfaces of a Cytiva CM5 Series S Sensor Chip were activated with a 1:1 mixture of 400 mM EDC and 100 mM NHS for 420 s at 10 μL/min. 25 μg/mL FOLR2 diluted in Sodium Acetate pH 5.5 was injected on the active channel (Flow Cell 2) for 420 s at 10p/min. Both the reference and active surfaces were then capped with 1M ethanolamine, pH 8.5 for 420 s, achieving an immobilization level of ˜4200 RU. Example compounds were serially diluted 1:1 in running buffer (10 mM HEPES, 150 mM NaCl, 0.05% T20, pH 7.5, 2% DMSO) from 100 nM to 3.125 nM and flowed over the active and reference surfaces for 120 s, and then allowed to dissociate in running buffer for 600 s, at 30 uL/min. The FOLR2 immobilized active surface and the reference surface were regenerated with a 30 s pulse of Sodium Acetate pH 5.5 at 30 μL/min. Sensorgrams were solvent corrected, double-referenced, and the data fitted and analyzed in Biacore Insight Evaluation Software Version 3.0.11.15423.

TNFα trimer = TNFα trimer (Homo sapiens, UniProt P01375); test: SPR binding kinetics of compounds to TNFα trimer; settings: class symbols
Chain of TNFα trimer (P01375 77-233 limits assumed): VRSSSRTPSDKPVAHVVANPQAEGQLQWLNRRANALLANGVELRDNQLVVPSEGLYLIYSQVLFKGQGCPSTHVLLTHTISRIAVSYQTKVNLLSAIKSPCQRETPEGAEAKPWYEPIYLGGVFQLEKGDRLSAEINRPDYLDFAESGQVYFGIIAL

[1] = test system: TNFα trimer complex to folate receptor (FOLR2); test: SPR co-engagement of compound-TNFα trimer complex to folate receptor; settings: TNFα + 10 nM compound binding FOLR2
Description: The active (Flow cell 2) surfaces of a Cytiva CM5 Series S Sensor Chip functionalized with FOLR2 as described in Example 58. Example compounds were diluted to 10 nM with 50 and 100 nM TNFα single chain trimer or 150 nM and 300 nM TNFα native monomer in running buffer (10 mM HEPES, 150 mM NaCl, 0.05% T20, pH 7.5, 2% DMSO), allowed to incubate for 5 hours at 25° C. and then flowed over the active and reference surfaces for 110 s, and then allowed to dissociate in running buffer for 600 s, at a flow rate of 30 μL/min. The FOLR2 immobilized active surface and the reference surface were regenerated with a 30 s pulse of 4M MgCl2 at 30 μL/min then allowed to equilibrate 240 s. Sensorgrams were solvent corrected, double-referenced, and the data fitted and analyzed in Biacore Insight Evaluation Software Version 3.0.11.15423.

THP-1 cells = test: Compound mediated uptake of TNFα-pHrodo in THP-1 cells (flow cytometry); type: cell-based; design: key to Uptake in THP1 cells (run) 2 / Uptake in THP1 cells (run) 3 / Uptake in THP1 cells (run) 4: + = ΔMFI less than that of I-17; ++ = ΔMFI ≈ to that of I-17; +++ = ΔMFI greater than that of I-17; settings: ΔMFI compared with I-17, uptake at 10 μM

Chain of FOLR2 (P14207 17-255): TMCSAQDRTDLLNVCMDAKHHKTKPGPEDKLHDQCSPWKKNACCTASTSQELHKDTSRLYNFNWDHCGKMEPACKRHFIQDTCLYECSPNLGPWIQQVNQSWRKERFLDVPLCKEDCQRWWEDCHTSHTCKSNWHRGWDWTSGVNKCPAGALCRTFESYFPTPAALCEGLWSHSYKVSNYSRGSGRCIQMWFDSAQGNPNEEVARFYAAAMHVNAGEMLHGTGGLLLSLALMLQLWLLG

Compound | Kd (FOLR2) | Kd (TNFα trimer) | co-engagement / complex formation observed on SPR [1] | Uptake in THP1 cells (run) 2 (THP-1 cells) | Uptake in THP1 cells (run) 3 (THP-1 cells) | Uptake in THP1 cells (run) 4 (THP-1 cells)
Cc1nc2cc(F)c(-c3cnc(OCCCCCn4cc(COCCOCCOCCOCCOCCOCCNC(=O)CC[C@H](NC(=O)c5ccc(NCc6cnc7nc(N)nc(O)c7n6)cc5)C(=O)O)nn4)nc3)nc2c(N[C@H](C)c2cc(C#N)ccc2F)c1Cl [Compound I-18, (S)-24-(4-(((2-amino-4-hydroxypteridin-6-yl)methyl)amino)benzamido)-1-(1-(5-((5-(7-chloro-8-((I-1-(5-cyano-2-fluorophenyl)ethyl)amino)-3-fluoro-6-methyl-1,5-naphthyridin-2-yl)pyrimidin-2-yl)oxy)pentyl)-1H-1,2,3-triazol-4-yl)-21-oxo-2,5,8,11,14,17-hexaoxa-20-azapentacosan-25-oic acid] | 0.4 nM | < 100 nM | complex formation observed | +++ | ++ | +++
Cc1nc2cc(F)c(-c3cnc(OCCCCCn4cc(COCCOCCOCCOCCOCCOCCOCCOCCOCCOCCNC(=O)CC[C@H](NC(=O)c5ccc(NCc6cnc7nc(N)nc(O)c7n6)cc5)C(=O)O)nn4)nc3)nc2c(N[C@H](C)c2cc(C#N)ccc2F)c1Cl [Compound I-20, (S)-36-(4-(((2-amino-4-hydroxypteridin-6-yl)methyl)amino)benzamido)-1-(1-(5-((5-(7-chloro-8-(((R)-1-(5-cyano-2-fluorophenyl)ethyl)amino)-3-fluoro-6-methyl-1,5-naphthyridin-2-yl)pyrimidin-2-yl)oxy)pentyl)-1H-1,2,3-triazol-4-yl)-33-oxo-2,5,8,11,14,17,20,23,26,29-decaoxa-32-azaheptatriacontan-37-oic acid] | 0.2 nM | < 1000 nM | complex formation observed | +++ | + | ++
Cc1nc2ccc(-c3ccc(N4CCN(CCOCCn5cc(COCCOCCOCCOCCNC(=O)CC[C@H](NC(=O)c6ccc(NCc7cnc8nc(N)nc(O)c8n7)cc6)C(=O)O)nn5)CC4)nc3)cn2c1Cc1ccccc1OC(F)F (racemic) [Compound I-22, rac-(R)-18-(4-(((2-amino-4-hydroxypteridin-6-yl)methyl)amino)benzamido)-1-(1-(2-(2-(4-(5-(3-(2-(difluoromethoxy)benzyl)-2-methylimidazo[1,2-a]pyridin-6-yl)pyridin-2-yl)piperazin-1-yl)ethoxy)ethyl)-1H-1,2,3-triazol-4-yl)-15-oxo-2,5,8,11-tetraoxa-14-azanonadecan-19-oic acid] | 0.3 nM | < 5000 nM | complex formation observed | + | + | +
